Test results reported in patent US10442791B2, “DNA-PK inhibitors” (Vertex Pharmaceuticals Incorporated, priority 2012, dated 2019).

Experiments:
PC3 = assay: Cell viability following irradiation (CellTiter-Glo), PC3; format: cell-based; conditions: PC3 (Prostate Cancer), viability at 6 days
Description: (§1) To evaluate the radiosensitizing effects of compounds of the invention in combination with ionizing radiation (IR), a broad panel of cell lines across multiple tumor types and genetic backgrounds were tested. Cells were incubated with DMSO or compound 578 for 30 minutes and then exposed to various doses of radiation (0, 0.5, 1, 2, 4, 6, 8, and 16 Gy). Cell viability was assessed at 6 days using CellTiter-Glo® (Promega, Inc).

[1] = test system: OD26749 NSCLC subcutaneous xenograft; assay: In vivo efficacy, primary OD26749 NSCLC subcutaneous xenograft model with whole body IR; design: species or system Nude mice; conditions: Days 19 and 26, Day 30 post implantation
Description: The efficacy of compound 578 in vivo was evaluated in the primary OD26749 NSCLC subcutaneous xenograft model. This primary NSCLC tumor was obtained from a patient with a poorly differentiated adenocarcinoma and was serially passaged in SCID mice prior to this study. Nude mice were surgically implanted with 150-mg fragments of OD26749 tumor at passage 3 (P3). Whole body ionizing radiation (IR, 2 Gy/treatment) was administered using a dual Cesium 137 source and initiated when tumors reached approximately 350 mm^3. Tumor volumes were measured twice a week during the course of the study. Anti-tumor efficacy is expressed as % T/C (tumor/control) while regression is expressed as % T/Ti, the reduction in tumor volume compared to the starting tumor volume.
Compound 578 [in 16% Captisol®+HPMC/PVP] was administered orally (b.i.d. at 0 and 4 hours) at 25, 50, 100 mg/kg and (q.d.) 200 mg/kg on Day 19 post implantation. A single 2-Gy dose of whole body IR was given 15 minutes after compound administration. Control animals were given vehicle orally b.i.d. (0 and 4 hours). On Day 26 post implantation, the same regimens were repeated.

HT1080 = assay: Cell viability following irradiation (CellTiter-Glo), HT1080; format: cell-based; conditions: HT1080 (Fibrosarcoma), viability at 6 days
Description: as §1

[2] = test system: human fibroblast cell lines (HFL1, IMR90 and MRC5), ARPE19, NHBE, SAEC; assay: Cell viability following irradiation, normal cell lines; format: cell-based; conditions: exception: HS68
Description: as §1

glioblastoma cell lines = assay: Cell viability following irradiation, glioblastoma cell lines; format: cell-based; conditions: generally less sensitive to radiation alone
Description: as §1

Huh7 = assay: Cell viability following irradiation (CellTiter-Glo), Huh7; format: cell-based; conditions: Huh7 (Hepatocellular Carcinoma), viability at 6 days
Description: as §1

SW900 = assay: Cell viability following irradiation (CellTiter-Glo), SW900; format: cell-based; conditions: SW900 (Lung Cancer), viability at 6 days
Description: as §1

U87MG = assay: Cell viability following irradiation (CellTiter-Glo), U87MG; format: cell-based; conditions: U87MG (Glioblastoma), viability at 6 days
Description: as §1

SK-MEL-5 = assay: Cell viability following irradiation (CellTiter-Glo), SK-MEL-5; format: cell-based; conditions: SK-MEL-5 (Melanoma), viability at 6 days
Description: as §1

H460 = assay: Cell viability following irradiation (CellTiter-Glo), H460; format: cell-based; conditions: H460 (Lung Cancer), viability at 6 days
Description: as §1

H2009 = assay: Cell viability following irradiation (CellTiter-Glo), H2009; format: cell-based; conditions: H2009 (Lung Cancer), viability at 6 days
Description: as §1

LS411N = assay: Cell viability following irradiation (CellTiter-Glo), LS411N; format: cell-based; conditions: LS411N (Colorectal Cancer), viability at 6 days
Description: as §1

SNU449 = assay: Cell viability following irradiation (CellTiter-Glo), SNU449; format: cell-based; conditions: SNU449 (Hepatocellular Carcinoma), viability at 6 days
Description: as §1

OE19 = assay: Cell viability following irradiation (CellTiter-Glo), OE19; format: cell-based; conditions: OE19 (Gastric-Esophageal Cancer), viability at 6 days
Description: as §1

PATU8889T = assay: Cell viability following irradiation (CellTiter-Glo), PATU8889T; format: cell-based; conditions: PATU8889T (Pancreatic cancer), viability at 6 days
Description: as §1

MCF7 = assay: Cell viability following irradiation (CellTiter-Glo), MCF7; format: cell-based; conditions: MCF7 (Breast Cancer), viability at 6 days
Description: as §1

FaDu = assay: Cell viability following irradiation (CellTiter-Glo), FaDu; format: cell-based; conditions: FaDu (Head and Neck Squamous Cell Carcinoma), viability at 6 days
Description: as §1

HCT116 = assay: Cell viability following irradiation (CellTiter-Glo), HCT116; format: cell-based; conditions: HCT116 (Colorectal Cancer), viability at 6 days
Description: as §1

H1299 = assay: Cell viability following irradiation (CellTiter-Glo), H1299; format: cell-based; conditions: H1299 (Lung Cancer), viability at 6 days
Description: as §1

DBTRG-05MG = assay: Cell viability following irradiation (CellTiter-Glo), DBTRG-05MG; format: cell-based; conditions: DBTRG-05MG (Glioblastoma), viability at 6 days
Description: as §1

A172 = assay: Cell viability following irradiation (CellTiter-Glo), A172; format: cell-based; conditions: A172 (Glioblastoma), viability at 6 days
Description: as §1

Colo-205 = assay: Cell viability following irradiation (CellTiter-Glo), Colo-205; format: cell-based; conditions: Colo-205 (Colorectal Cancer), viability at 6 days
Description: as §1

## CNC(=O)c1ccnc2c([C@H](C)CNc3cc(-c4cnc(C)nc4)ncn3)cccc12 [Compound 578, (S)—N-methyl-8-(1-((2′-methyl-[4,5′-bipyrimidin]-6-yl)amino)propan-2-yl)quinoline-4-carboxamide]
PC3; compound 578 0.7 μM + IR
  EC50 IR: 0.5 Gy
PC3; compound 578 2.1 μM + IR
  EC50 IR: <0.5 Gy
[1]; 25 mg/kg b.i.d. oral + 2 Gy whole body IR
  % T/C (tumor growth inhibition): 25.6%
[1]; 50 mg/kg b.i.d. oral + 2 Gy whole body IR
  % T/C (tumor growth inhibition): 11.7%
[1]; 100 mg/kg b.i.d. oral + 2 Gy whole body IR, P<0.001 compared to IR alone
  % T/Ti (regression): −3.1%
[1]; 200 mg/kg q.d. oral + 2 Gy whole body IR
  % T/C (tumor growth inhibition): 6.5%
HT1080; compound 578 0.7 μM + IR
  EC50 IR: 1.9 Gy
HT1080; compound 578 2.1 μM + IR
  EC50 IR: 0.9 Gy
[2]
  radiosensitization: only marginal radiosensitization
Glioblastoma cell lines
  radiosensitization: less radiosensitization
Huh7; compound 578 0.7 μM + IR
  EC50 IR: 1.3 Gy
Huh7; compound 578 2.1 μM + IR
  EC50 IR: 0.8 Gy
SW900; compound 578 0.7 μM + IR
  EC50 IR: 4.2 Gy
SW900; compound 578 2.1 μM + IR
  EC50 IR: 4.3 Gy
U87MG; compound 578 0.7 μM + IR
  EC50 IR: >16 Gy
U87MG; compound 578 2.1 μM + IR
  EC50 IR: >16 Gy
SK-MEL-5; compound 578 0.7 μM + IR
  EC50 IR: 2.7 Gy
SK-MEL-5; compound 578 2.1 μM + IR
  EC50 IR: 2.3 Gy
H460; compound 578 0.7 μM + IR
  EC50 IR: 0.9 Gy
H460; compound 578 2.1 μM + IR
  EC50 IR: 0.7 Gy
H2009; compound 578 0.7 μM + IR
  EC50 IR: 2.7 Gy
H2009; compound 578 2.1 μM + IR
  EC50 IR: 1.5 Gy
LS411N; compound 578 0.7 μM + IR
  EC50 IR: 2.3 Gy
LS411N; compound 578 2.1 μM + IR
  EC50 IR: 1.9 Gy
SNU449; compound 578 0.7 μM + IR
  EC50 IR: 3.3 Gy
SNU449; compound 578 2.1 μM + IR
  EC50 IR: 1.8 Gy
OE19; compound 578 0.7 μM + IR
  EC50 IR: 0.5 Gy
OE19; compound 578 2.1 μM + IR
  EC50 IR: <0.5 Gy
PATU8889T; compound 578 0.7 μM + IR
  EC50 IR: 1.1 Gy
PATU8889T; compound 578 2.1 μM + IR
  EC50 IR: 0.9 Gy
MCF7; compound 578 0.7 μM + IR
  EC50 IR: 4.9 Gy
MCF7; compound 578 2.1 μM + IR
  EC50 IR: 3.3 Gy
FaDu; compound 578 0.7 μM + IR
  EC50 IR: 2 Gy
FaDu; compound 578 2.1 μM + IR
  EC50 IR: 1.9 Gy
HCT116; compound 578 0.7 μM + IR
  EC50 IR: 0.5 Gy
HCT116; compound 578 2.1 μM + IR
  EC50 IR: <0.5 Gy
H1299; compound 578 0.7 μM + IR
  EC50 IR: 1.1 Gy
H1299; compound 578 2.1 μM + IR
  EC50 IR: 1.5 Gy
DBTRG-05MG; compound 578 0.7 μM + IR
  EC50 IR: 4.2 Gy
DBTRG-05MG; compound 578 2.1 μM + IR
  EC50 IR: 5 Gy
A172; compound 578 0.7 μM + IR
  EC50 IR: 1.7 Gy
A172; compound 578 2.1 μM + IR
  EC50 IR: 0.9 Gy
Colo-205; compound 578 0.7 μM + IR
  EC50 IR: 0.7 Gy
Colo-205; compound 578 2.1 μM + IR
  EC50 IR: 0.7 Gy
